Measured values: a melting point compilation (Tetko et al.; mined from patent text by program, amines drawn as free bases though some values may be those of a salt)

Compound | melting point
CCC(C)C1CCCCC1NC(=O)c1sc(C)nc1C(F)(F)F (stereo unspecified) | 112 to 113 °C
CCOC(=O)CC[C@@H](C(=O)OCC)N1C(=O)c2ccc([N+](=O)[O-])cc2C1=O | 65.5 to 66.5 °C
COC(=O)[C@H](Cc1ccc(CC(=O)O)c(C2SCCS2)c1)NC(C)=O | 113 to 119 °C
CCCCCCCCCCCCCCCCOc1cc(OC)c([N+](=O)[O-])cc1OC | 71 °C
CN1CCN(c2cc(N)c([N+](=O)[O-])cc2F)CC1 | 154 to 155 °C
C=CCOc1cc2c(cc1C(C)=O)CCCC2 | 62 to 63 °C
O=C(O)COc1ccc(C2=CC(=O)CCC2)c(Cl)c1Cl | 197 to 198 °C
Cc1cn(-c2cccc(OCCOS(N)(=O)=O)c2)cn1 | 169 to 170 °C
O=C(O)CC(CC(=O)Nc1cc(O)c(Cl)cc1F)C(F)(F)F (stereo unspecified) | 171 to 174 °C
CC1OC(Cn2cncn2)(c2ccc(Cl)cc2Cl)C1(C)C (stereo unspecified) | 118 to 125 °C
CCOC(=O)c1cnc2nn(C)cc2c1N1CCCCC1 | 185 to 188 °C
Cc1c(Cl)cc(Cl)cc1Br | 84 to 85 °C
CC(=O)N(C)C1=C(C#N)CC(N)(C(=O)CCCl)C=C1 (stereo unspecified) | 174 to 175 °C
COc1cc(C(C)=O)ccc1OCCN1CCN(c2n[nH]c3cc(Cl)ccc23)CC1 | 154 to 156 °C
Cc1c(C)c([N+](=O)[O-])c(C)c2c1OC(C)(C)C2c1ccc(C(C)C)cc1 (stereo unspecified) | 109 to 110 °C
Cc1ncc(CC(=O)O)s1 | 144 °C
Cc1cn(CC#CCN2CCCC2=O)cn1 | 134 to 137 °C
O=C1CCC(c2c[nH]c3ncccc23)CC1 | 162 to 164 °C
CC1=C(/C=C/C(C)=C/CO)C(C)(C)CC(O)C1=O (stereo unspecified) | 85 to 86 °C
COc1ccc(S(=O)(=O)N(CCC(=O)N2CCC(C(=O)O)CC2)C(CC(C)C)C(=O)NO)cc1 (stereo unspecified) | 118 to 120 °C
CCCCCCCCCCCCCc1c[nH]c(C(=O)OC)c1 | 80 to 82 °C
CC(=O)CCN(CCNC(=O)OC(C)(C)C)c1nc2cc(Cl)ccc2o1 | 145 to 148 °C

Compound | melting point
COc1cccc(C=CC(=O)N2CCNCC2)c1 | 84 to 86 °C
CC(=O)c1cc(C(C)=O)cc(S(N)(=O)=O)c1 | 179 to 181 °C
CCN(CC)C(=O)c1c(C(=O)OC)ccc(F)c1[Si](C)(C)C | 46 °C
COc1cc2c3c(c1)c(CCN1CCN(c4cc(C)ccn4)CC1)c(C)n3CCC2 | 104 °C
O=[N+]([O-])c1ccc2[nH]c(/C=C/c3ccoc3)nc2c1 | 230 to 233 °C
Cc1[nH]c2ccccc2c1CSCCN1CC=C(c2ccccc2)CC1 | 182 °C
CCCc1nc2c(N)nc3cccnc3c2n1CCCCCC(=O)N1CCOCC1 | 148 to 150 °C
CC1CCc2c(-n3ccnc3)c(F)cc3c(=O)c(C(=O)O)cn1c23 (stereo unspecified) | > 250 °C
CCC(CC)n1nnc2c(Nc3ccc(C(C)C)cc3Br)nc(C)cc21 | 144 to 145 °C
C#Cc1ccc2ncsc2c1 | 47.5 to 49 °C
CC(=O)N(c1ccc(O)cc1)N1CCCCC1 | 217 to 218 °C
CC[C@@H](CO)[C@](O)(Cn1cncn1)c1ccc(F)cc1F | 75 to 77 °C
O=C(O)CS(=O)(=O)CCCCCNS(=O)(=O)c1ccc(Cl)cc1 | 193 to 194 °C
CCOC(=O)c1nnc2c(sc3nc(C)ccc32)c1OCC | 158 to 160 °C
CC1(C)C(C(=O)O)C1C(O)C(F)(Cl)Cl (stereo unspecified) | 142 °C
c1cncc(CN2CCN(CCCCc3c[nH]c4ccc(-n5cnnc5)cc34)CC2)c1 | 110 to 112 °C
CN(C)C=CC(=O)c1ccc(Cl)cc1 | 78.5 to 80.5 °C
CC(=O)ON1C(C)(C)CC(C(N)=O)C1(C)C (stereo unspecified) | 150 to 151 °C
COc1cc(S(C)(=O)=O)c(F)cc1OCCCl | 85 to 87 °C
Cc1cc2c(c(C)c1[N+](=O)[O-])OCO2 | 75 to 76 °C
C=CCN(CC=C)c1ccc2[nH]c3cnc(C(=O)OCC)nc3c2c1 | 188 to 190 °C

Continued, values first:

melting point | Compound
196 to 198 °C | CCS(=O)(=O)c1cn(C)cc(-c2cccc(C(F)(F)F)c2)c1=O
70 to 71.5 °C | COC(=O)c1snc(-c2ccccc2)c1C(=O)OC
188 to 189 °C | O=C(CCl)Nc1c(Cl)cccc1SSc1cccc(Cl)c1NC(=O)CCl
108 to 110 °C | O=[N+]([O-])c1sccc1-c1ccc(Cl)cc1
226 to 228 °C | CCCOc1ccc(F)c2c(=O)c(-c3ccc(OC)cc3)cn(CC(=O)NC3CCNCC3)c12
200 °C | Cn1cc(-c2ccc3nnc(C(F)(F)c4ccc5ncccc5c4)n3n2)cn1
172 to 173 °C | COC(=O)c1ccc(NC(=O)c2cc(C(C)C)c(C(C)C)s2)cc1OC
158 °C | CCOC(=O)C1=C(N)NC(N)=C(C(=O)OCC)C1c1ccccc1C
174 to 175 °C | CC(C)(OCc1nn(Cc2ccccc2)c2ccccc12)C(=O)NNC(N)=O
239 °C | COC(=O)c1ccc(NC(=O)C(F)(F)F)c(C(=O)OC)c1
123 to 125 °C | O=C1OC(CCCN2CCN(c3ccccn3)CC2)CN1c1ccccc1 (stereo unspecified)
194 to 196 °C | COc1ccc(C(CC(=O)Nc2cc(C(N)=O)ccc2C(C)(C)C)CC(C)C)c(OC)c1 (stereo unspecified)
186 to 187 °C | O=[N+]([O-])c1ccccc1N1CCN(CC(O)COc2cccc3c2CCCC3)CC1 (stereo unspecified)
290 to 292 °C | Cc1nc(NC(=O)c2cc[nH]c(=O)c2)sc1C(=O)NCc1ccccc1
135 to 138 °C | CCC(=O)c1cc2c(s1)CCC1CC(=O)N(c3ccc(Cl)cc3)N=C21 (stereo unspecified)
79 to 80 °C | CC(C)c1cn2ccccc2c1S(=O)(=O)c1ccc(OCCCN2CCC(c3ccccc3)CC2)cc1
160 to 161 °C | Cc1nc(C)c2c(n1)N(Cc1ccc(-c3ccccc3-c3nnnn3C(c3ccccc3)(c3ccccc3)c3ccccc3)cc1)C(=O)CC2
144 to 147 °C | C=C1CSC2C(NC(=O)Cc3ccccc3)C(=O)N2C1C(=O)OC(c1ccccc1)c1ccccc1 (stereo unspecified)
129 to 131 °C | Cn1nnc(Cc2ccc3c(c2)c(C2=CCN(CCN4CCNC4=O)CC2)cn3-c2ccc(F)cc2)n1
120 to 122 °C | N#Cc1cnn(-c2ccc(F)cc2F)c1Cl

melting point | Compound
117 to 118 °C | CCOC(=O)CS(=O)(=O)c1ccc(C=C(C)c2ccc3c(c2)C(C)(C)CCC3(C)C)cc1
137 to 141 °C | CCOC(=O)c1ccc(-c2ncc(C#Cc3ccccc3)s2)s1
190 to 195 °C | O=C(O)c1cccc(-c2nc3sccn3c2-c2ccnc(N[C@@H]3CCCN(S(=O)(=O)c4ccc(Cl)cc4)C3)n2)c1
203 to 204 °C | O=C(NC1CCCN(Cc2ccccc2)C1)c1ccc2[nH]ncc2c1 (stereo unspecified)
202 to 204 °C | COc1ccc(S(=O)(=O)N(Cc2cccnc2)c2c(C(=O)NO)cnc3c2c(C)nn3C)cc1
192 to 195 °C | Nc1ccc(-c2ccncc2)cn1
138 °C | O=C1c2ccc(Nc3ccc(F)cc3F)cc2CCc2cc(OCCO)ccc21
175 to 176 °C | COc1ccc(C(=O)Nc2ccccc2)cc1NCc1ccc(O)c([N+](=O)[O-])c1
122 to 123 °C | O=Cc1ccc(CNc2ccccn2)c(Cl)c1
174 to 175 °C | CSc1cc2c(cc1C(F)(F)F)N(C(=O)Nc1cccc(C(=O)NC3CCN(Cc4ccccc4)C3)c1)CC2 (stereo unspecified)
136 °C | CCC(=O)Oc1cc(OC)cc(OC)c1C(=O)C=Cc1ccc(Cl)cc1
51 to 54 °C | O=C(NCC1CCN(C[C@H]2COc3ccc(Cl)cc3O2)CC1)c1cccc2cccnc12
206 to 209 °C | O=C1c2ccccc2C(=O)N1CCc1c[nH]c2ccc(Br)cc12
176 to 178 °C | CCCn1nc(C(F)F)nc1Cc1ccc(-c2ccccc2-c2nnn[nH]2)nc1
170 to 176 °C | COC(=O)[C@@H]1CN(CCCCN2C(=O)c3cc(Cl)ccc3S2(=O)=O)CC[C@H]1n1c(=O)[nH]c2ccccc21 (relative stereo)
170 to 171 °C | Cc1ccc(S(=O)(=O)N(C)c2cccc(-c3ccnc4c(C(=O)c5ccccc5)cnn34)c2)cc1
95 to 97 °C | Nc1cccc(CN2CCC(OC(=O)c3ccccc3)CC2)c1
165 to 166 °C | CC(O)=C(C#N)C(=O)Nc1ccc(F)cc1
61.5 to 64.4 °C | O=S(=O)(c1ccccc1)c1ccc2c(c1)OCCN2CCN1C=CNC1
98 to 99 °C | COC1CCC(=O)N1S(=O)(=O)C=Cc1ccccc1 (stereo unspecified)

melting point | Compound
76 °C | CCOC(=O)C(C)(C)Oc1ccc(CCNC(=O)C=Cc2ccccc2Cl)cc1
154 to 155 °C | OCCNc1cc(Nc2ccc(Nc3ccccc3)cc2)ncn1
206 to 207 °C | CCOC(=O)C1C=Nc2c(ccc3cc(C(=O)N(C)Cc4ccc(F)cc4)cnc23)C1=O (stereo unspecified)
> 300 °C | CN1C(=O)N(N=Cc2cccnc2)Cc2cc(C(F)(C(F)(F)F)C(F)(F)F)ccc21
76 °C | COC(=O)C1=CC(=O)CCC1c1ccccc1OC (racemic)
210 °C | O=C(Nc1cccc(C(F)(F)F)c1)c1ccc([N+](=O)[O-])cc1
207 to 209 °C | CN(c1ccoc1)c1n[nH]c2ncnc(Nc3cccc(Cl)c3)c12
130 to 132 °C | CCCOc1ccccc1-c1nc2n(C3CCCC3)[nH]c(C)c-2c(=O)n1
142 °C | O[C@@H]1CN=C(c2ccccc2F)O[C@H]1c1ccccc1 (racemic)
129 to 130 °C | O=c1[nH]c2ccc(NCCCc3ccccc3)cc2o1
47 to 48 °C | CC(Oc1ccc(-c2cccc(S(=O)(=O)NCC(F)(F)F)c2)cc1)C(O)CCc1cccnc1 (stereo unspecified)
95 to 97 °C | CC(C)=CCCN1C(=O)c2ccccc2C1=O
283 °C | CNS(=O)(=O)c1cc(C(=O)O)cc(N)c1Oc1ccccc1
168 to 172 °C | Cc1cc(-c2c3ccccc3c(Br)c3sc(C)c(C)c23)cc(C)c1OS(=O)(=O)c1ccc(C(=O)OC(C)(C)C)c(O)c1
55 to 56 °C | COc1ccc(-c2oncc2CCCO)cc1OC
123 to 124 °C | O=C(NC(=S)Nc1ccccc1-c1ccc(F)cc1)c1ccccc1
177 to 178 °C | COc1ccc(-c2nc(CC(=O)O)c(-c3ccco3)o2)cc1
121 to 122 °C | C=C(C)COc1ccc(C(=O)C=Cc2ccc(Br)cc2)c(O)c1
